{"source": "patent EP3822283A1", "about": "“SEMAPHORIN 3A NEURODEGENERATION MODULATORS, COMPOSITIONS AND USES THEREOF” (Consejo Superior de Investigaciones Científicas (CSIC), priority 2019, dated 2021)", "biological_target": "T1, Sema3A (Rattus norvegicus, UniProt Q63548)", "T1 sequence (Q63548 21-772)": "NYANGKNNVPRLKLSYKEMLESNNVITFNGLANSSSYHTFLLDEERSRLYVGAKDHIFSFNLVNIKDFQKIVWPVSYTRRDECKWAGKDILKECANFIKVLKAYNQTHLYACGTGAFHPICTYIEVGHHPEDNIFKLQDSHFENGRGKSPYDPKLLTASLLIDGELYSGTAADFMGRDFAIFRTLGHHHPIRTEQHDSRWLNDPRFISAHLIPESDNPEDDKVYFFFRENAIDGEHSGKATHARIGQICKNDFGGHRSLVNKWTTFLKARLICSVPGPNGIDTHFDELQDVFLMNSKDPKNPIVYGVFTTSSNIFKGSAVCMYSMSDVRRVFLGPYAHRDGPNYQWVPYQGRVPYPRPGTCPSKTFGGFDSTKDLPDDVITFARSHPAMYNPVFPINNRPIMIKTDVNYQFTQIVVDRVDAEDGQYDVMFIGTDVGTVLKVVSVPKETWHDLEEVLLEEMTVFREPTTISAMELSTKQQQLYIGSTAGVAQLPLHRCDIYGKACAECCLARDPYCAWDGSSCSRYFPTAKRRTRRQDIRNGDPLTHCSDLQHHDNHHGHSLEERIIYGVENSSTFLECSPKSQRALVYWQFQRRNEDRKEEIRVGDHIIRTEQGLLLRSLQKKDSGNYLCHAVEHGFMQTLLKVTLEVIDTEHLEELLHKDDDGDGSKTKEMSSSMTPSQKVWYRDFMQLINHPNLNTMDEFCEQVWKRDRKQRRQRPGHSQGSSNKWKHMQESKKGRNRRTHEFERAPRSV", "method": "To evaluate the potential of the Compound 2 to inhibit Sema3a in a relevant small animal model, a rat axotomy study was carried out. […] Adult male Sprague-Dawley rats (12-15 weeks old, 300 g) were anesthetized (50 mg/kg xylazine and 35 mg/kg ketamine), and their left optic nerves were exposed by lateral canthotomy. Briefly, the conjuctivae were incised lateral to the cornea, and the retractor bulbus muscles were separated. Through a small opening in the meninges (50-100 µm), the nerve fibers were completely transected at a distance of 2-3 mm from the globe. The procedure was performed without damage to the nerve vasculature and optic nerve blood supply and with minimal damage to the meninges by the use of a specially designed glass dissector with a 200- µm tip and a smooth blunt edge (Solomon et al., 1996, Journal of Neuroscience Methods, 70, 21-5). […] Clinical examination of the eyes was performed using a slit lamp, and the eyes were monitored for any signs of hyperemia, edema, dis- charge, fibrin, and other inflammatory parameters. […] Two independent and blinded researchers counted the number of labeled RGC in flat-mounted retinas by fluorescent microscopy. For each retina, 20 representative microscopic fields were evaluated: 10 fields from the peripheral area and 10 fields from the central area (each field covering an area of 0.069 mm2). […]"}
{"smiles": "CCN(CC)CCN(CC(=O)N(CCN1CCCC1)CC(=O)N(CCC1CCCN1C)CC(N)=O)C(=O)OCc1ccccc1", "note": "(centres unmarked) [Compound 2, 2-[2-(1-methylpyrrolidin-2-yl)ethyl]-5-(2-pyrrolidin-1-yl)ethyl-8-benzyloxycarbonyl-11,11-diethyl-3,6-dioxo-2,5,8,11-tetraazaundecancarboxamide]", "values": [{"measurement": "RGC survival compared to healthy rats", "setting": "adult male Sprague-Dawley rats, optic nerve axotomy, single intravitreal dose 0.025 µg/eye immediately after surgery, 14 days after optic nerve surgery, 2 days after Di-Asp retrograde staining of RGC", "value": 30, "unit": "%"}, {"measurement": "prevention of RGC loss (neuroprotection)", "setting": "rat optic nerve axotomy, single intravitreal dose 0.025 µg/eye in 4 µl PBS, labeled RGC counted in flat-mounted retinas", "value": "neuroprotective"}]}
